Measured values as given in ChEMBL document CHEMBL1201862, “PubChem BioAssay data set” (2004).
Values belong to the compound of their own block, whether it stands above or below them. Active and inactive are the calls of the source.

Assays:
[1] = biological target: Dual specificity tyrosine-phosphorylation-regulated kinase 1A (Rattus norvegicus, UniProt Q63470); assay type: biochemical, Homo sapiens
SUMO-activating enzyme [2] = biological target: T1, SUMO-activating enzyme (Homo sapiens, UniProt Q9UBT2); assay: SUMOylation inhibitor hit validation, confirmation, SUMOylation inhibitor project, biochemical, AlphaScreen (AID 2018); assay type: functional
Large T antigen = Large T antigen (Simian virus 40, UniProt P03070); assay type: functional, Betapolyomavirus macacae;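 also: Confirmatory-stage PubChem screen for compounds that inhibit SV40 T antigen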
[3] = biological target: Cyclin-dependent kinase 5/CDK5 activator 1 (Homo sapiens, UniProt Q00535); assay: CDK5/p35 kinase inhibitors, dose response, biochemical, cherry-picked samples, set 2 (AID 504545)
[4] = biological target: Induced myeloid leukemia cell differentiation protein Mcl-1 (Homo sapiens, UniProt Q07820); assay type: functional
[5] = biological target: Ras and Rab interactor 1/Tyrosine-protein kinase ABL1 (Homo sapiens, UniProt P00519+Q13671); assay type: functional;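 also: biochemical TR-FRET dose-response test measuring inhibition of binding between Rin1 and Abl proteins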
SUMO-activating enzyme [6] = biological target: T1, SUMO-activating enzyme; assay: inhibitors of in vitro SUMOylation cascade, primary screen, biochemical, HTRF, uHTS (AID 2006); assay type: protein-complex assay
A-375 [7] = assay: A375 melanoma cell viability reduction, dose response, counter-screen for MITF modulator project, cherry-pick samples, set 2 (AID 540335); assay type: functional, cell-based; conditions: Homo sapiens
A-375 [8] = assay: MITF: Counter assay: A375 proliferation Measured in Cell-Based System Using Plate Reader - 2084-03_Inhibitor_Dose_DryPowder_Activity. [Related pubchem assays (depositor defined):AID488944]; assay type: functional; conditions: Homo sapiens
[9] = biological target: Voltage-gated inwardly rectifying potassium channel KCNH2 (Homo sapiens, UniProt Q12809); conditions: Potency;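 also: confirmatory quantitative high-throughput screen measuring inhibition of hERG channel activity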
[10] = biological target: Beta-adrenergic receptor kinase 1 (Homo sapiens, UniProt P25098); assay: GRK2 inhibitors displacing RNA aptamer, dose response, biochemical, flow cytometry beads, FAM-aptamer, powder set 1 (AID 588720)
Escherichia coli = assay: microbe, parasite or virus in culture

T1 sequence (Q9UBE0 whole entry): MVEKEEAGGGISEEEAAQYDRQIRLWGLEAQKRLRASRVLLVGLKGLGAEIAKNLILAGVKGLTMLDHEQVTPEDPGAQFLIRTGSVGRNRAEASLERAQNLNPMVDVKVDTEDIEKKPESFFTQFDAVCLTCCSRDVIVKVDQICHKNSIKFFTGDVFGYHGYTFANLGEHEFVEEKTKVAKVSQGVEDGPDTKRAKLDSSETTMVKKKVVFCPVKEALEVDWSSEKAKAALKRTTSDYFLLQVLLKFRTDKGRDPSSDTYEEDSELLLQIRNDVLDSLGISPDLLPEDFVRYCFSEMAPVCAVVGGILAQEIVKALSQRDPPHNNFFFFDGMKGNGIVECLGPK
T1 sequence (Q9UBT2 whole entry): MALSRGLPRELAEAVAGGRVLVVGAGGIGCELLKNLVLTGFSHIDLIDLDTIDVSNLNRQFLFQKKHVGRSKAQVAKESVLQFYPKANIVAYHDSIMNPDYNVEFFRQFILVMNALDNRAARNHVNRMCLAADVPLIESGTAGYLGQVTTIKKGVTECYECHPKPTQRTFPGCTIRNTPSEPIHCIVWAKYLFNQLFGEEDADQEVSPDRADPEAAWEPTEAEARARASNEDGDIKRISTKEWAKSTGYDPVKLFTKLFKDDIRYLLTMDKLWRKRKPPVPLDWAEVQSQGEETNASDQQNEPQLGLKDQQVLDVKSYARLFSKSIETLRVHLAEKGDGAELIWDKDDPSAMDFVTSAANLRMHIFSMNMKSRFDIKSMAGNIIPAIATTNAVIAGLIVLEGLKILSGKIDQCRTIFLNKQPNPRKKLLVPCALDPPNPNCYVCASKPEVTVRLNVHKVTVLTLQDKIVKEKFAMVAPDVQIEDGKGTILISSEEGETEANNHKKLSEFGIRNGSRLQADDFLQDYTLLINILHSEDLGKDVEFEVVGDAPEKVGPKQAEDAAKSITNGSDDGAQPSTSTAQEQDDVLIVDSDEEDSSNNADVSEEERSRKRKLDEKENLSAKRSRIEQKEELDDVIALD
Sequence of Voltage-gated inwardly rectifying potassium channel KCNH2 (Q12809 whole entry): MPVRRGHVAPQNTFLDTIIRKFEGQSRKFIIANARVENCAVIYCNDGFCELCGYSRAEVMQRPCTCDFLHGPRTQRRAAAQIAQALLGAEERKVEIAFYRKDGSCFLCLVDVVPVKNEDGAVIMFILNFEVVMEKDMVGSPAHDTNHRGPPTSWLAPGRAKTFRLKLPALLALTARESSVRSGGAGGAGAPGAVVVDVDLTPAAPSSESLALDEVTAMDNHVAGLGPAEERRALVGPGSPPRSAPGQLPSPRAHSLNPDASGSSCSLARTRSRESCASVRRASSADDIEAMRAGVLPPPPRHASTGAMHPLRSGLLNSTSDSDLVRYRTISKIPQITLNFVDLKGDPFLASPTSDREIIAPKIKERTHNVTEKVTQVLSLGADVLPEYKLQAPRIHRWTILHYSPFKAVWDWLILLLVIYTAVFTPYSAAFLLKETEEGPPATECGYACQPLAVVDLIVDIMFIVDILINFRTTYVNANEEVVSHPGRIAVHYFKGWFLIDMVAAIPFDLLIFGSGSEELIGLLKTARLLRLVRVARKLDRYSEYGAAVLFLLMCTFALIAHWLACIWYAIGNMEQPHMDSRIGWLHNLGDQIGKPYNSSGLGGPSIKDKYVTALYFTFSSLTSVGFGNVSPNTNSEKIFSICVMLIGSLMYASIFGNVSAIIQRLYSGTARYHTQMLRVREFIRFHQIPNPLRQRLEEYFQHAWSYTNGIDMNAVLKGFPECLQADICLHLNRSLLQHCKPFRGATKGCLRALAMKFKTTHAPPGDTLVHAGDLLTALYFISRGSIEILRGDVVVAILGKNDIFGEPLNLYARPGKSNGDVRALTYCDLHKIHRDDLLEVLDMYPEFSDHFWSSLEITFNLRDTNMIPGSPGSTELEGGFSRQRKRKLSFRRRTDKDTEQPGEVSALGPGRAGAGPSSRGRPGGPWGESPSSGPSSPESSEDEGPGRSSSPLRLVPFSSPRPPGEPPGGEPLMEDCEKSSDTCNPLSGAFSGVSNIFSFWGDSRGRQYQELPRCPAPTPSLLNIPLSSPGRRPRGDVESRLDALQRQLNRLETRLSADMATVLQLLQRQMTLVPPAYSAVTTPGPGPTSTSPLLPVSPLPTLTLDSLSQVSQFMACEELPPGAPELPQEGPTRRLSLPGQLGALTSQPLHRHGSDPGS
Sequence of Ras and Rab interactor 1/Tyrosine-protein kinase ABL1 (P00519 whole entry): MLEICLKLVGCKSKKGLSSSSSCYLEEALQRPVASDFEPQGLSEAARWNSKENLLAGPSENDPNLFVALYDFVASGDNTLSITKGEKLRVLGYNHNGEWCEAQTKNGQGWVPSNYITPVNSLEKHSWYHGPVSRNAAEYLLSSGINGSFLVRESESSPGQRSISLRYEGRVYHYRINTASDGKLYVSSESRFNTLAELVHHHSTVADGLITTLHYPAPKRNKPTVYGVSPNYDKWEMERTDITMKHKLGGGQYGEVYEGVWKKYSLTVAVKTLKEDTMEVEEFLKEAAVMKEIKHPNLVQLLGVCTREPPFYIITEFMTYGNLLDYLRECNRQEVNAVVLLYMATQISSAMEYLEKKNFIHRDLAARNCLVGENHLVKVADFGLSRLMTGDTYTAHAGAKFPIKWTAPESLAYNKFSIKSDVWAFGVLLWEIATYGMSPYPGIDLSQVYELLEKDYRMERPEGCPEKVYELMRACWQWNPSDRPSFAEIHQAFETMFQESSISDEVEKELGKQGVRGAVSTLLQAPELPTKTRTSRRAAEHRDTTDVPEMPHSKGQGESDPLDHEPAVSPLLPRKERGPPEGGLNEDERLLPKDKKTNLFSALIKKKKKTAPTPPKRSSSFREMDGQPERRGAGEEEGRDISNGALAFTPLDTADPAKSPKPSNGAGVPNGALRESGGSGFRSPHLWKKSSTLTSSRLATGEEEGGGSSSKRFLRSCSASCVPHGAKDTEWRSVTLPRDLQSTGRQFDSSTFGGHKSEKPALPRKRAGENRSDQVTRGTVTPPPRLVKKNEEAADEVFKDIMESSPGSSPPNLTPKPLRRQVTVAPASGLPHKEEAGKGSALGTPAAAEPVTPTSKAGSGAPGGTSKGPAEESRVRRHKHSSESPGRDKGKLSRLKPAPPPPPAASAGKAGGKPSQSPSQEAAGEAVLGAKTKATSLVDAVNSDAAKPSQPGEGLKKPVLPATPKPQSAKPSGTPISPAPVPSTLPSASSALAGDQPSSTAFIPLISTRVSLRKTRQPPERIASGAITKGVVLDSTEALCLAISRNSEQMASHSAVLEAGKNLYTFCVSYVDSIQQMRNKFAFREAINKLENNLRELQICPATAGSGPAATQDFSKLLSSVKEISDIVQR
Sequence of Ras and Rab interactor 1/Tyrosine-protein kinase ABL1 (Q13671 whole entry): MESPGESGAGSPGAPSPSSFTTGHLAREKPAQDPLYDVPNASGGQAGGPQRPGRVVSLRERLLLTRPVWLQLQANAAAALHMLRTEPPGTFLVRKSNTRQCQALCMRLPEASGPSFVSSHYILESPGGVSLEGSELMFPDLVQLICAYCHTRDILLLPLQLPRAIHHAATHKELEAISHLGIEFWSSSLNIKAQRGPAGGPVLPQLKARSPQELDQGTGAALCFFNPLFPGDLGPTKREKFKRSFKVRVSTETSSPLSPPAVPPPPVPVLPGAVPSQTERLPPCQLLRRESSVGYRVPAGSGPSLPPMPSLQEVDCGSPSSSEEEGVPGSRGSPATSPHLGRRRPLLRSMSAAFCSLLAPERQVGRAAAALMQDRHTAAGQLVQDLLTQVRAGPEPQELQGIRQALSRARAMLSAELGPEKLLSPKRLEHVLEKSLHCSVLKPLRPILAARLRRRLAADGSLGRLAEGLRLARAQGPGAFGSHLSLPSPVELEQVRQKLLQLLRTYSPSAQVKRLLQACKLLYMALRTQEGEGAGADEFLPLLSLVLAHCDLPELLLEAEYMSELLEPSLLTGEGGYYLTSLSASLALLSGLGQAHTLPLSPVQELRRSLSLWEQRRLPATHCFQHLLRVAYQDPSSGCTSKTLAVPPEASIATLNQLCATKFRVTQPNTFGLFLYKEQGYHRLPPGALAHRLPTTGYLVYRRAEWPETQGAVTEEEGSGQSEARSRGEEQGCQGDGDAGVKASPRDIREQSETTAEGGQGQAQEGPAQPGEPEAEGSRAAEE
Sequence of Beta-adrenergic receptor kinase 1 (P25098 whole entry): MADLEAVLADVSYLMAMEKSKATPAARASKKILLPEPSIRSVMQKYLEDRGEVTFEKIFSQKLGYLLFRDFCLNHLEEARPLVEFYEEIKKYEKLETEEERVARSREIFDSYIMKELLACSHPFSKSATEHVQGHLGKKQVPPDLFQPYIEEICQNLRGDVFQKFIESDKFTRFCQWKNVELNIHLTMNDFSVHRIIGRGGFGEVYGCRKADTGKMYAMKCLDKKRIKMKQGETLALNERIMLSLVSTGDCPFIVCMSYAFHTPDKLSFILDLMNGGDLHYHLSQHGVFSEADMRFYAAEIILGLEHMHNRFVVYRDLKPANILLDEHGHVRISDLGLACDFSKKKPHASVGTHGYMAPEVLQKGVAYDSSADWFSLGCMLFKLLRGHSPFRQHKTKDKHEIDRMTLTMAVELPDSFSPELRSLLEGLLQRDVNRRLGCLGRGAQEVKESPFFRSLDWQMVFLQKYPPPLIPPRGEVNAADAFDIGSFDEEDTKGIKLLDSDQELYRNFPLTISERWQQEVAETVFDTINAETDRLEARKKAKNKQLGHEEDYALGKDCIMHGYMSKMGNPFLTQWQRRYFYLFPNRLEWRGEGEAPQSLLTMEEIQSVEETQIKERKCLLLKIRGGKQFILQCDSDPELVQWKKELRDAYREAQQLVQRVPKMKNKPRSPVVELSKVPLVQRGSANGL

SMILES: COc1cc2c(ccc3cc(OC)c(OC)c(O)c32)cc1O
AC50 [1]: 0.406 µM (active)
IC50 (SUMO-activating enzyme [2]): 2.89 µM (active)
IC50 (Large T antigen): 9.72 µM (active)
AC50 [3]: 2.19 µM (active)
IC50 [4]: 1.95 µM (active)
IC50 [5]: 35.2 µM (inactive)
IC50 (SUMO-activating enzyme [6]): 13.9 µM (active)

SMILES: COc1ccc(CCC(=O)N2CCc3ccccc32)cc1
AC50 (A-375 [7]): > 35 µM (active)
AC50 (A-375 [8]): > 35 µM (active)

SMILES: C[N+]1(C)C2CCC1CC(OC(=O)c1c[nH]c3ccccc13)C2 (configuration not stated)
AC50 [9]: 25.1 µM (inconclusive)

EC50 [10]: 17.7 µM (inactive)
SMILES: CCOc1ccc(CCNC(=O)CCS(=O)(=O)c2ccc(Br)cc2)cc1OCC

SMILES: CCOC(=O)c1ccc(NC(=O)c2cn(CCC#N)nc2-c2ccc3c(c2)OCCO3)cc1
AC50 (Escherichia coli): 30.3 µM (active)
